Our source for the IC50 values is patent publication US9422293B2 (priority 2006, dated 2016).

Structures can show the parent of a compound that is named as a salt.

The target in this experiment is rat TRPV1 (Rattus norvegicus (Rat), UniProt O35433). The conditions noted are these: read-out: Rat IC50.
Sequence of rat TRPV1 (O35433 whole entry): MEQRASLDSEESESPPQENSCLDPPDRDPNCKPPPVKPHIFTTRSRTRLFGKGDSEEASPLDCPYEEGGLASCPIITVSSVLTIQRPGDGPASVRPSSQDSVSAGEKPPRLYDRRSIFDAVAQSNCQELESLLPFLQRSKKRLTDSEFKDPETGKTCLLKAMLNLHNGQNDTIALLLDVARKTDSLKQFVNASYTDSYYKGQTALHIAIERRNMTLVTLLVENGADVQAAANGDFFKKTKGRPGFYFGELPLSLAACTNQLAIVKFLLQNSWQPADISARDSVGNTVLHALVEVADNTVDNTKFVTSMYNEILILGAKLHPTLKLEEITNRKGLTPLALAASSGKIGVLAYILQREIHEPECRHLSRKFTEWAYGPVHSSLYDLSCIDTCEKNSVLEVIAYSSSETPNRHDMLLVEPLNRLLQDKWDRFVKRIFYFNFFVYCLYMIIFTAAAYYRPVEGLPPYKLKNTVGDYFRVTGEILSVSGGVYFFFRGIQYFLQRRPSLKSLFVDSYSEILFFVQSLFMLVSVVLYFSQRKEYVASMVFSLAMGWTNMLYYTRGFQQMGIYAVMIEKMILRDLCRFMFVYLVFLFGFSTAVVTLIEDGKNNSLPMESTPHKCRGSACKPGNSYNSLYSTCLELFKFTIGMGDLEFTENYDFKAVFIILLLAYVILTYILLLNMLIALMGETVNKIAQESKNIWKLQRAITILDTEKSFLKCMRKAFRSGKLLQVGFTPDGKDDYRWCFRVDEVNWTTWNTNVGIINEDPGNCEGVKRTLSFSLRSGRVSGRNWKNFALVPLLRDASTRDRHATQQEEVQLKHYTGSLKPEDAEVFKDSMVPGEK
Regarding `FC(F)(F)c1ccc(Nc2nc(-c3ccncc3)nc3c2CCN(c2ncccc2C(F)(F)F)CC3)cn1` [Example 170, 2-Pyridin-4-yl-7-[3-(trifluoromethyl)pyridin-2-yl]-N-[6-(trifluoromethyl)pyridin-3-yl]-6,7,8,9-tetrahydro-5H-pyrimido[4,5-d]azepin-4-amine trifluoroacetic acid salt], the IC50 (in general, the concentration that gives 50% inhibition) is 60 nM. The value for `CC(C)(C)c1ccc(Nc2nc(-c3ccccn3)nc3c2CCN(c2ncccc2C(F)(F)F)CC3)cc1` [Example 171, N-[4-(1,1-Dimethylethyl)phenyl]-2-pyridin-2-yl-7-[3-(trifluoromethyl)pyridin-2-yl]-6,7,8,9-tetrahydro-5H-pyrimido[4,5-d]azepin-4-amine trifluoroacetic acid salt] was 80 nM; that for `FC(F)(F)c1ccc(Nc2nc(-c3ccccn3)nc3c2CCN(c2ncccc2C(F)(F)F)CC3)cc1` [Example 172, 2-Pyridin-2-yl-N-[4-(trifluoromethyl)phenyl]-7-[3-(trifluoromethyl)pyridin-2-yl]-6,7,8,9-tetrahydro-5H-pyrimido[4,5-d]azepin-4-aminele 1 trifluoroacetic acid salt] was 130 nM. In the case of `FC(F)(F)c1ccc(Nc2nc(-c3ccccn3)nc3c2CCN(c2ncccc2C(F)(F)F)CC3)cc1Cl` [Example 173, N-[3-Chloro-4-(trifluoromethyl)phenyl]-2-pyridin-2-yl-7-[3-(trifluoromethyl)pyridin-2-yl]-6,7,8,9-tetrahydro-5H-pyrimido[4,5-d]azepin-4-amine trifluoroacetic acid salt] it was 210 nM. In the case of `COC(=O)C(C)(C)c1ccc(Nc2nc(C(C)C)nc3c2CCN(c2ncccc2C(F)(F)F)CC3)cc1` [Example 174, Methyl 2-methyl-2-[4-({2-(1-methylethyl)-7-[3-(trifluoromethyl)pyridin-2-yl]-6,7,8,9-tetrahydro-5H-pyrimido[4,5-d]azepin-4-yl}amino)phenyl]propanoate] it was 2010 nM; in that of `COC(=O)C(C)(C)c1ccc(Nc2nc(N3CCCCC3)nc3c2CCN(c2ncccc2C(F)(F)F)CC3)cc1` [Example 175, Methyl 2-methyl-2-[4-({2-piperidin-1-yl-7-[3-(trifluoromethyl)pyridin-2-yl]-6,7,8,9-tetrahydro-5H-pyrimido[4,5-d]azepin-4-yl}amino)phenyl]propanoate], 80 nM; in that of `FC(F)(F)c1ccc(Nc2nc(-c3cccnc3)nc3c2CCN(c2ncccc2C(F)(F)F)CC3)cc1` [Example 176, 2-Pyridin-3-yl-N-[4-(trifluoromethyl)phenyl]-7-[3-(trifluoromethyl)pyridin-2-yl]-6,7,8,9-tetrahydro-5H-pyrimido[4,5-d]azepin-4-amine trifluoroacetic acid salt], 810 nM.

On to `CC(C)(O)c1ccc(Nc2nc(N3CCCCC3)nc3c2CCN(c2ncccc2C(F)(F)F)CC3)cc1` [Example 177, 2-[4-({2-Piperidin-1-yl-7-[3-(trifluoromethyl)pyridin-2-yl]-6,7,8,9-tetrahydro-5H-pyrimido[4,5-d]azepin-4-yl}amino)phenyl]propan-2-ol], for which the IC50 was determined as 90 nM.

Turning to `CC(C)c1nc2c(c(Nc3ccc(C(C)(C)O)cc3)n1)CCN(c1ncccc1C(F)(F)F)CC2` [Example 178, 2-[4-({2-(1-Methylethyl)-7-[3-(trifluoromethyl)pyridin-2-yl]-6,7,8,9-tetrahydro-5H-pyrimido[4,5-d]azepin-4-yl}amino)phenyl]propan-2-ol], the IC50 stood at 110 nM.

As for `CC(C)c1nc2c(c(Nc3ccc(C(C)(O)C(F)(F)F)cc3)n1)CCN(c1ncccc1C(F)(F)F)CC2` (centres unmarked) [Example 179, 1,1,1-Trifluoro-2-[4-({2-(1-methylethyl)-7-[3-(trifluoromethyl)pyridin-2-yl]-6,7,8,9-tetrahydro-5H-pyrimido[4,5-d]azepin-4-yl}amino)phenyl]propan-2-ol], the IC50 is 1340 nM.

In the case of `CC(O)(c1ccc(Nc2nc(N3CCCCC3)nc3c2CCN(c2ncccc2C(F)(F)F)CC3)cc1)C(F)(F)F` (centres unmarked) [Example 180, 1,1,1-Trifluoro-2-[4-({2-piperidin-1-yl-7-[3-(trifluoromethyl)pyridin-2-yl]-6,7,8,9-tetrahydro-5H-pyrimido[4,5-d]azepin-4-yl}amino)phenyl]propan-2-ol], the IC50 was more than 6670 nM. As for `CC(C)c1nc2c(c(Nc3ccc(C(C)(C)CO)cc3)n1)CCN(c1ncccc1C(F)(F)F)CC2` [Example 181, 2-Methyl-2-[4-({2-(1-methylethyl)-7-[3-(trifluoromethyl)pyridin-2-yl]-6,7,8,9-tetrahydro-5H-pyrimido[4,5-d]azepin-4-yl}amino)phenyl]propan-1-ol], the IC50 amounted to 820 nM. In the case of `CC(C)c1nc2c(c(Nc3ccc(C(C)O)cc3)n1)CCN(c1ncccc1C(F)(F)F)CC2` (centres unmarked) [Example 182, 1-[4-({2-(1-Methylethyl)-7-[3-(trifluoromethyl)pyridin-2-yl]-6,7,8,9-tetrahydro-5H-pyrimido[4,5-d]azepin-4-yl}amino)phenyl]ethanol] it was 790 nM.

With `CC(C)c1nc2c(c(Nc3ccc(C(O)C(F)(F)F)cc3)n1)CCN(c1ncccc1C(F)(F)F)CC2` (centres unmarked) [Example 183, 2,2,2-Trifluoro-1-[4-({2-(1-methylethyl)-7-[3-(trifluoromethyl)pyridin-2-yl]-6,7,8,9-tetrahydro-5H-pyrimido[4,5-d]azepin-4-yl}amino)phenyl]ethanol], the IC50 was found to be 2370 nM. The value for `CC(C)c1nc2c(c(Nc3ccc(C(C)(C)C(=O)O)cc3)n1)CCN(c1ncccc1C(F)(F)F)CC2` [Example 184, 2-Methyl-2-[4-({2-(1-methylethyl)-7-[3-(trifluoromethyl)pyridin-2-yl]-6,7,8,9-tetrahydro-5H-pyrimido[4,5-d]azepin-4-yl}amino)phenyl]propanoic acid] was 1950 nM. The value for `CC(C)(C(=O)O)c1ccc(Nc2nc(N3CCCCC3)nc3c2CCN(c2ncccc2C(F)(F)F)CC3)cc1` [Example 186, 2-Methyl-2-[4-({2-piperidin-1-yl-7-[3-(trifluoromethyl)pyridin-2-yl]-6,7,8,9-tetrahydro-5H-pyrimido[4,5-d]azepin-4-yl}amino)phenyl]propanoic acid] was 140 nM; that for `Cc1cnc(Nc2nc(C(C)C)nc3c2CCN(c2ncccc2C(F)(F)F)CC3)cn1` [Example 187, 2-(1-Methylethyl)-N-(5-methylpyrazin-2-yl)-7-[3-(trifluoromethyl)pyridin-2-yl]-6,7,8,9-tetrahydro-5H-pyrimido[4,5-d]azepin-4-amine hydrochloride salt] was 2850 nM. As to `CC(C)c1nc2c(c(Nc3ccc(C(F)(F)F)c(Cl)n3)n1)CCN(c1ncccc1C(F)(F)F)CC2` [Example 188, N-[6-Chloro-5-(trifluoromethyl)pyridin-2-yl]-2-(1-methylethyl)-7-[3-(trifluoromethyl)pyridin-2-yl]-6,7,8,9-tetrahydro-5H-pyrimido[4,5-d]azepin-4-amine hydrochloride salt], the IC50 turned out to be 1590 nM. Consider `FC(F)(F)c1ccc(Nc2nc(-c3ccncc3)nc3c2CCN(c2ncccc2C(F)(F)F)CC3)nc1` [Example 190, 2-Pyridin-4-yl-7-[3-(trifluoromethyl)pyridin-2-yl]-N-[5-(trifluoromethyl)pyridin-2-yl]-6,7,8,9-tetrahydro-5H-pyrimido[4,5-d]azepin-4-amine trifluoroacetic acid salt], for which the IC50 turned out to be 1160 nM. The value for `CC(C)c1nc2c(c(Nc3cnc(C(F)(F)F)cn3)n1)CCN(c1ncccc1C(F)(F)F)CC2` [Example 191, [2-Isopropyl-7-(3-trifluoromethyl-pyridin-2-yl)-6,7,8,9-tetrahydro-5H-pyrimido[4,5-d]azepin-4-yl]-(5-trifluoromethyl-pyrazin-2-yl)-amine] was 260 nM; that for `FC(F)(F)c1cnc(Nc2nc(N3CCCCC3)nc3c2CCN(c2ncccc2C(F)(F)F)CC3)cn1` [Example 192, [2-Piperidin-1-yl-7-(3-trifluoromethyl-pyridin-2-yl)-6,7,8,9-tetrahydro-5H-pyrimido[4,5-d]azepin-4-yl]-(5-trifluoromethyl-pyrazin-2-yl)-amine] was 70 nM. The value for `CN1CCN(c2nc3c(c(Nc4ccc(C(F)(F)F)cn4)n2)CCN(c2ncccc2C(F)(F)F)CC3)CC1` [Example 193, 2-(4-Methylpiperazin-1-yl)-7-[3-(trifluoromethyl)pyridin-2-yl]-N-[5-(trifluoromethyl)pyridin-2-yl]-6,7,8,9-tetrahydro-5H-pyrimido[4,5-d]azepin-4-amine] was 2110 nM; that for `FC(F)(F)c1ccc(Nc2nc(N3CCCCCC3)nc3c2CCN(c2ncccc2C(F)(F)F)CC3)nc1` [Example 194, 2-Azepan-1-yl-7-[3-(trifluoromethyl)pyridin-2-yl]-N-[5-(trifluoromethyl)pyridin-2-yl]-6,7,8,9-tetrahydro-5H-pyrimido[4,5-d]azepin-4-amine] was 70 nM. Consider `FC(F)(F)c1ccc(Nc2nc(N3CCC3)nc3c2CCN(c2ncccc2C(F)(F)F)CC3)nc1` [Example 197, 2-Azetidin-1-yl-7-[3-(trifluoromethyl)pyridin-2-yl]-N-[5-(trifluoromethyl)pyridin-2-yl]-6,7,8,9-tetrahydro-5H-pyrimido[4,5-d]azepin-4-amine trifluoroacetic acid salt], for which the IC50 was 150 nM. Consider `CC(C)c1nc2c(c(Nc3ccc(N)cc3)n1)CCN(c1ncccc1C(F)(F)F)CC2` [Example 198, N-{2-(1-Methylethyl)-7-[3-(trifluoromethyl)pyridin-2-yl]-6,7,8,9-tetrahydro-5H-pyrimido[4,5-d]azepin-4-yl}benzene-1,4-diamine trifluoroacetic acid salt], for which the IC50 worked out at 9160 nM. With `CC(C)c1nc2c(c(Nc3ccc(C(C)(C)C)c(N)c3)n1)CCN(c1ncccc1C(F)(F)F)CC2` [Example 199, 4-(1,1-Dimethylethyl)-N1-{2-(1-methylethyl)-7-[3-(trifluoromethyl)pyridin-2-yl]-6,7,8,9-tetrahydro-5H-pyrimido[4,5-d]azepin-4-yl}benzene-1,3-diamine], the IC50 is 1360 nM.
